Test results reported in ChEMBL document CHEMBL5058564, “EUbOPEN Chemogenomics Library 2 (Incucyte)” (2022).

What was measured:
Assay type in all cases: toxicity, cell-based
HEK-293T = assay: Incucyte cell viability with HEK293T; details: human, 10 µM, compound concentration 10 uM
U2OS = assay: Incucyte cell viability with U2OS; details: human, 10 µM, compound concentration 10 uM
Fibroblast = assay: Incucyte cell viability with human fibroblast; details: 10 µM, compound concentration 10 uM
[1] = 0 h, replicate number 1, timepoint 0 hours
[2] = 0 h, replicate number 2, timepoint 0 hours
[3] = 18 h, replicate number 1, timepoint 18 hours
[4] = 24 h, replicate number 1, timepoint 24 hours
[5] = 6 h, replicate number 1, timepoint 6 hours
[6] = 6 h, replicate number 2, timepoint 6 hours
[7] = 12 h, replicate number 1, timepoint 12 hours
[8] = 18 h, replicate number 2, timepoint 18 hours
[9] = 24 h, replicate number 2, timepoint 24 hours
[10] = 12 h, replicate number 2, timepoint 12 hours
Also: unitless GR value; below 1 slowed growth and below 0 cell loss.

Structure (SMILES)	Growth Rate (HEK-293T; [1])	Growth Rate (HEK-293T; [2])	Growth Rate (HEK-293T; [3])	Growth Rate (HEK-293T; [4])	Growth Rate (U2OS; [2])	Growth Rate (U2OS; [5])	Growth Rate (U2OS; [6])	Growth Rate (U2OS; [7])	Growth Rate (U2OS; [3])	Growth Rate (U2OS; [8])	Growth Rate (U2OS; [4])	Growth Rate (U2OS; [9])	Growth Rate (Fibroblast; [2])	Growth Rate (Fibroblast; [5])	Growth Rate (Fibroblast; [6])	Growth Rate (Fibroblast; [7])	Growth Rate (Fibroblast; [3])	Growth Rate (Fibroblast; [4])	Growth Rate (HEK-293T; [5])	Growth Rate (HEK-293T; [7])	further results
CCCCC1=NC2(CCCC2)C(=O)N1Cc1ccc(-c2ccccc2-c2nnn[nH]2)cc1 [IRBESARTAN]	0.8	0.31	0.86	0.68	-1	0.3	0.94	0.97	0.72	0.95	0.87	0.92	0.58	-0.26	0.66	-0.32	0.01	0.09			Growth Rate (Fibroblast; [1]): 0.38; Growth Rate (Fibroblast; [10]): 0.98
CCc1nc2c(C)cc(C)nc2[nH]1						0.2		0.62	0.7	0.93		0.96			0.58						Growth Rate (HEK-293T; [8]): 0.89; Growth Rate (Fibroblast; [1]): 0.65; Growth Rate (Fibroblast; [10]): 0.69; Growth Rate (Fibroblast; [8]): 0.92
N=C(N)NCCC[C@H](NC(=O)COCC(c1ccccc1)c1ccccc1)C(=O)O.O=C(O)C(F)(F)F	0.96	0.2	0.84		0.34	0.54	0.72	0.84	0.7	0.91	0.8	1	0.91	0.91		0.66	0.46	0.79	1	0.7	Growth Rate (U2OS; [1]): 0.29; Growth Rate (U2OS; [10]): 0.86
S=C(NCCCc1c[nH]cn1)NCCCN(Cc1ccc(Cl)c(Cl)c1)c1ccc(Br)cn1			0.15	0.15	-1				0.88	0.68	0.83	0.67	0.91	-0.23	0.5	0.17	-0.18	-0.16	0.16	0.08	Growth Rate (HEK-293T; [6]): -0.21; Growth Rate (HEK-293T; [8]): 0.19; Growth Rate (HEK-293T; [9]): 0.2; Growth Rate (U2OS; [10]): 0.84; Growth Rate (Fibroblast; [1]): 0.28; Growth Rate (Fibroblast; [10]): 0.18; Growth Rate (Fibroblast; [8]): 0.55; Growth Rate (Fibroblast; [9]): 0.74
COc1ccc2[nH]c(I)c(CCNC(C)=O)c2c1 [IODOMELATONIN]		0.55			-0.81		0.81		0.84	0.91		0.91		0.67	0.7	0.97			0.9		Growth Rate (HEK-293T; [6]): 0.72; Growth Rate (U2OS; [10]): 0.99; Growth Rate (Fibroblast; [8]): 0.79
CCCN(CCc1cccs1)[C@H]1CCc2c(O)cccc2C1 [ROTIGOTINE]	0.77	-1		0.99		0.95		0.96					-0.39	0.1		0.84					Growth Rate (U2OS; [1]): 0.77
Cc1cc(C)cc([C@H]2c3cc(C)ccc3NC(=O)CN2C(=O)c2ccc(Br)s2)c1	-0.3	0.03	0.58	0.65		0.12		0.65	0.52	0.88	0.67	0.94	0.88	0.06		0.6	0.44	0.33	0.95	0.79	Growth Rate (HEK-293T; [10]): 0.81; Growth Rate (HEK-293T; [8]): 0.92; Growth Rate (HEK-293T; [9]): 0.83; Growth Rate (U2OS; [1]): -0.56; Growth Rate (Fibroblast; [1]): 0.07; Growth Rate (Fibroblast; [10]): 0.64; Growth Rate (Fibroblast; [9]): 0.97
COc1cc(N2CCN(C)CC2)ccc1Nc1nccc(-c2cn(C)c3cnccc23)n1	-0.61	-0.28			-1							0.96	-0.24								Growth Rate (HEK-293T; [9]): 0.95; Growth Rate (U2OS; [1]): 0.8; Growth Rate (Fibroblast; [1]): -0.91
CN1CCN(c2ccc(Nc3c4ccccc4nc4ccccc34)cc2)CC1.Cl.Cl.O			-0.62	-0.48	0.67	0.19	0.29	-0.09	-0.2	-0.17	-0.28		0.35	-0.84	0.16	-0.56	-0.39	-0.25	-0.94	-0.78	Growth Rate (HEK-293T; [6]): -0.96; Growth Rate (HEK-293T; [10]): -0.81; Growth Rate (HEK-293T; [8]): -0.61; Growth Rate (HEK-293T; [9]): -0.52; Growth Rate (U2OS; [10]): -0.02; Growth Rate (Fibroblast; [10]): 0.17; Growth Rate (Fibroblast; [8]): 0.08; Growth Rate (Fibroblast; [9]): 0.11
Oc1c(CN2CCN(c3ccccn3)CC2)cc(Cl)c2cccnc12		-1	0.11	0.17	-0.6	0.19	-0.14	0.01	-0.04	0.1	-0.07	0.08						0.65	-0.48	-0.03	Growth Rate (U2OS; [1]): 0.03; Growth Rate (U2OS; [10]): 0.21; Growth Rate (Fibroblast; [9]): 0.89
CCc1cc2c(cc1-c1cccc(S(=O)(=O)F)c1)C(C)(C)c1[nH]c3cc(C#N)ccc3c1C2=O	0.26	0.5	0.78	1	-1	-0.03	0.92	0.61	0.58	0.78		0.78	0.22	0.03	0.66	-0.15	-0.21	-0.18	0.46	0.99	Growth Rate (HEK-293T; [6]): 0.37; Growth Rate (HEK-293T; [10]): 0.6; Growth Rate (HEK-293T; [8]): 0.62; Growth Rate (U2OS; [1]): 0.95; Growth Rate (U2OS; [10]): 0.81; Growth Rate (Fibroblast; [10]): 0.17; Growth Rate (Fibroblast; [8]): 0.47; Growth Rate (Fibroblast; [9]): 0.58
O=C(O)COc1cccc(-c2ocnc2-c2nc(-c3ccccc3)c(-c3ccccc3)o2)c1	0.53	-0.17	0.67	0.9	0.7			0.74	0.88		1		0.64	0.49	0.07	0.59	0.64	0.59		0.79	Growth Rate (HEK-293T; [9]): 0.98; Growth Rate (U2OS; [1]): -0.56; Growth Rate (Fibroblast; [1]): 0.04; Growth Rate (Fibroblast; [10]): 0.91
CN(C)CCN(Cc1ccc(-c2ccc(CNCCc3ccccc3)cc2)cc1)C(=O)CCC1CCCC1.Cl.Cl			-0.55	-0.46		-1	-0.96	-0.99	-0.92	-0.64	-0.86	-0.58		-1		-0.99	-0.96	-0.93	-0.93	-0.74	Growth Rate (HEK-293T; [6]): -0.92; Growth Rate (HEK-293T; [10]): -0.78; Growth Rate (HEK-293T; [8]): -0.67; Growth Rate (HEK-293T; [9]): -0.59; Growth Rate (U2OS; [10]): -0.81; Growth Rate (Fibroblast; [8]): -0.99; Growth Rate (Fibroblast; [9]): -0.98
